Where two headings read alike, the source gives them in different places.
Experiments:
[1] = test system: STZ (streptozotocin)-induced diabetic rats; conditions: vs vehicle group
Description: STZ (streptozotocin)-induced diabetic rats were prepared according to the following procedure. STZ (45 mg/kg) was intravenously administered to rats at the age of 7 weeks. At week 2 after administration of STZ, the blood was collected from the tail vein and the blood glucose level was measured to confirm that the blood glucose level was increased to 300 mg/dl or more. In the administration group, the rats were grouped so as to minimize the variation in the mean values of body weight, blood glucose level and pain response threshold measured on the previous day of the administration of the drug. A non-administration group of STZ was separately prepared and used as Normal group. A test drug was orally administered once daily for 28 consecutive days. Paresthesia due to neuropathy was determined by a von Frey Test (pain threshold test) at two time points, at 1 hour after administration on day 28 and on day 7 of cessation of the drug after the last administration (Pain, vol. 53, pp. 81-88, 1993). The test was initiated after the rats were placed in a cage for observation and acclimated for at least 20 minutes. By using a digital von Frey Test model 2390 (manufactured by IITC Inc.), a tip end was lightly applied to a paw. When there was no response, an applied load was increased from 1 to 3 g. The pain threshold was determined as an applied load (g) at which an avoidance response such as paw withdrawal was observed. In each animal, the measurement was performed twice for each of the left and right paws, and the mean of the 4 values was calculated as a withdrawal threshold (g). The improvement of paresthesia was determined based on the recovery of the withdrawal threshold in a drug administration group as compared with a vehicle (distilled water) administration group. Statistical test was performed between the vehicle administration group and the drug administration groups. For confirming the onset of diabetic neuropathy, a Student's t-test was also performed to compare the vehicle administration group and the Normal group.

Cytochrome P-450 (1A2) = molecular target: T1, Cytochrome P-450 (1A2) (Homo sapiens, UniProt P05177); experiment: Test for Cytochrome P-450 (1A2) enzyme inhibition using human liver microsomes; assay type: in vitro ADME
T1 construct: 0.2 mg protein/mL human liver microsomes; from tissue; host or cells: human liver microsomes
T1 sequence (P05177 1-516): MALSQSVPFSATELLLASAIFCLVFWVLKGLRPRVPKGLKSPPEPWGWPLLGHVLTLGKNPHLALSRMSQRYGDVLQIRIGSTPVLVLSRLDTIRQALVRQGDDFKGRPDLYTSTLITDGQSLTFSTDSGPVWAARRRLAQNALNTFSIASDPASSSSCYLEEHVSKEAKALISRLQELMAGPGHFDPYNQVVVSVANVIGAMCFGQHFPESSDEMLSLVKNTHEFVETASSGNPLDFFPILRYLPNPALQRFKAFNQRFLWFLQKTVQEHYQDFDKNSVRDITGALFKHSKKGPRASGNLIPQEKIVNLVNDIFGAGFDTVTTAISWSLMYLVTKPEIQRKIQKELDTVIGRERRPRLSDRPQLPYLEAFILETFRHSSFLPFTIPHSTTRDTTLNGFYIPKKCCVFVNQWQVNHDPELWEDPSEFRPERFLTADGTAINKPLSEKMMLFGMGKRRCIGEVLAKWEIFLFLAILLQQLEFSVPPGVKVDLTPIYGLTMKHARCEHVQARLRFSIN
Description: An experiment was performed according to the method of Rae Yuan et al. (Drug Metabolism and Disposition, 30(12), 1311-1319, 2002).
By using a 96-well plate, a test drug (0.3 to 10 μmol/L) was added to 100 mmol/L Na-K phosphate buffer (pH=7.4) containing 0.1 mmol/L ethylenediaminetetraacetic acid (EDTA), 1 mmol/L nicotinamide adenine dinucleotide phosphate (NADPH), and 0.2 mg protein/mL human liver microsomes, and the total volume was made up to 145 μL, and then, preincubation of the resulting mixture was started at 37° C. At 5 minutes after the start of preincubation, phenacetin (20 mmol/L) was added thereto as a substrate for P450(1A2), and the total volume was made up to 150 μL, and then, the resulting mixture was incubated at 37° C. for 20 minutes. Thereafter, 130 μL of acetonitrile was added to the sample to stop the reaction. For the sample in which the reaction was stopped, the concentration of acetaminophen which is a metabolite of phenacetin was determined using LC/MS/MS.
A production amount of acetaminophen in the absence of the test drug was taken as 100%, and a production amount of acetaminophen in the presence of the test drug was calculated for each concentration of the test drug. Based on the calculated production amount for each concentration of the test drug, a concentration of the test drug at which the production amount of acetaminophen was 50% (IC50 value) was calculated from the following equation. The test was performed for two cases, and a mean value was used for the calculation of each value.
Production amount [I] (%)=100/(1+[I]/IC50)
Production amount [I] (%): (Production amount of acetaminophen when the test compound concentration was [I])/(Production amount of acetaminophen in the absence of test compound)×100

[2] = test system: STZ-induced diabetic rats; experiment: Motor nerve conduction velocity (MNCV) in STZ-induced diabetic rats; assay type: in vivo, rat; conditions: 30 mg/kg
Description: The measurement was performed using the method of Cameron et al. (The Journal of Experimental Physiology, vol. 74, pp. 917-926, 1989) with some modification.
1 were used. Further, the same test was performed also for the Normal group. The rats were anesthetized with sodium pentobarbital, and the temperature of the rectum was maintained at about 37.5° C. using a body temperature maintenance device for small animals, and then, the MNCV was measured using an evoked potential measurement device. First, a positive stimulating electrode was attached to a dorsal region. […] Then, an average waveform evoked by the stimulation was derived from bipolar recording electrodes inserted into a gastrocnemius muscle region of the hind limb of the same side, and the latency (sec) from the start of stimulation to the first deflection of an M-wave was measured. Thereafter, the tibial nerve around behind the knee was stimulated with a negative stimulating electrode in the same manner as above, and the latency (sec) was measured in the same manner as in the gastrocnemius muscle region. A value obtained by dividing a distance (m) between the two regions stimulated with the negative stimulating electrode by a difference (sec) in the M-wave latency measured in the above two stimulation experiments was determined to be an MNCV value. […]

[3] = test system: fibroblast growth factor 2 (FGF-2); experiment: Quantitative PCR of neurotrophic factor expression, spinal cord lumbar region of STZ-induced diabetic rats; assay type: in vivo, rat; conditions: 30 mg/kg
Description: (§1) In order to verify whether (+)-2-[(1H-inden-7-yloxy)methyl]morpholine hydrochloride acts on the expression levels of neurotrophic factors, an improving effect of (+)-2-[(inden-7-yloxy)methyl]morpholine hydrochloride on a decrease in the expression levels of neurotrophic factors in the spinal cord and the dorsal root ganglia of STZ-induced diabetic rats was examined.
(§2) The expression levels of neurotrophic factors were measured in the animals on day 7 to 8 of cessation of the drug withdrawal after the repeated daily administration in each of the Normal group, the vehicle administration group (STZ-induced diabetic rats) and the drug administration group at a dose of 30 mg/kg (STZ-induced diabetic rats) in Example 2. The spinal cord lumbar region and the dorsal root ganglia (L4, L5, and L6) were excised and the total RNA was extracted from the excised specimens using an RNA extraction kit RNeasy (Qiagen). […] A quantitative PCR analysis was performed for the obtained cDNA using primers to fibroblast growth factor 2 (FGF-2), insulin-like growth factor 1 (IGF-1), and glyceraldehyde-3-phosphate dehydrogenase (G3PDH) by PRISM 7900 (ABI). […] The improving effect on a decrease in the expression levels of neurotrophic factors were determined based on the recovery on the expression levels of neurotrophic factors in the drug administration group as compared with the vehicle administration group. […]

[4] = test system: insulin-like growth factor 1 (IGF-1); experiment: Quantitative PCR of neurotrophic factor expression, dorsal root ganglia of STZ-induced diabetic rats; assay type: in vivo, rat; conditions: 30 mg/kg
Description: as §1, §2

[5] = 30 mg/kg orally once daily for 28 days, measured on day 7 of cessation of drug
[6] = 30 mg/kg orally once daily, day 28 of repeated administration, 1 hour after administration

| SMILES | effect on the decrease in the withdrawal threshold (von Frey test) [1, 5] | effect on the decrease in the withdrawal threshold (von Frey test) [1, 6] | CYP inhibitory activity (Cytochrome P-450 (1A2)) | possibility of drug-drug interaction by oral administration (Cytochrome P-450 (1A2); from difference between IC50 and Cmax at oral administration) | IC50 (Cytochrome P-450 (1A2); human liver microsomes, substrate phenacetin, acetaminophen production, mean of two cases) | MNCV ([2]; p.o., day 7 to 8 of drug withdrawal after repeated daily administration, mean ± SEM, Normal 62.4, Vehicle 49.4) | improving effect on a decrease in MNCV ([2]; vs vehicle group) | effect on the decrease in the expression level of FGF-2 [3] | relative gene expression level of FGF-2 normalized by G3PDH ([3]; p.o., day 7 to 8 of cessation, mean ± SEM, Normal 100.0, Vehicle 66.9) | effect on the decrease in the expression level of IGF-1 [4] | relative gene expression level of IGF-1 normalized by G3PDH ([4]; p.o., day 7 to 8 of cessation, mean ± SEM, Normal 100.0, Vehicle 54.6) |
| --- | --- | --- | --- | --- | --- | --- | --- | --- | --- | --- | --- |
| C1=Cc2cccc(OCC3CNCCO3)c2C1.Cl (racemic) [(±)-2-[(inden-7-yloxy)methyl]morpholine hydrochloride] | significantly restored the decrease in the withdrawal threshold | significantly restored the decrease in the withdrawal threshold |  |  |  |  |  |  |  |  |  |
| C1=Cc2cccc(OCC3CNCCO3)c2C1.Cl (single isomer, unassigned; (+)) [(+)IDX, (+)-2-[(1H-inden-7-yloxy)methyl]morpholine hydrochloride] | significantly restored the decrease in the withdrawal threshold | significantly restored the decrease in the withdrawal threshold | extremely weak | extremely low | 8.1 µM | 53.3 ± 1.1 m/s | significant improving effect | significantly recovers the decrease in the expression levels | 103.5 ± 4.9 | significantly recovers the decrease in the expression levels | 67.7 ± 3.2 |
